The target of the test is T1, recombinant hGYS1/GN1 protein (Homo sapiens, UniProt P13807).
T1 sequence (P13807 1-737): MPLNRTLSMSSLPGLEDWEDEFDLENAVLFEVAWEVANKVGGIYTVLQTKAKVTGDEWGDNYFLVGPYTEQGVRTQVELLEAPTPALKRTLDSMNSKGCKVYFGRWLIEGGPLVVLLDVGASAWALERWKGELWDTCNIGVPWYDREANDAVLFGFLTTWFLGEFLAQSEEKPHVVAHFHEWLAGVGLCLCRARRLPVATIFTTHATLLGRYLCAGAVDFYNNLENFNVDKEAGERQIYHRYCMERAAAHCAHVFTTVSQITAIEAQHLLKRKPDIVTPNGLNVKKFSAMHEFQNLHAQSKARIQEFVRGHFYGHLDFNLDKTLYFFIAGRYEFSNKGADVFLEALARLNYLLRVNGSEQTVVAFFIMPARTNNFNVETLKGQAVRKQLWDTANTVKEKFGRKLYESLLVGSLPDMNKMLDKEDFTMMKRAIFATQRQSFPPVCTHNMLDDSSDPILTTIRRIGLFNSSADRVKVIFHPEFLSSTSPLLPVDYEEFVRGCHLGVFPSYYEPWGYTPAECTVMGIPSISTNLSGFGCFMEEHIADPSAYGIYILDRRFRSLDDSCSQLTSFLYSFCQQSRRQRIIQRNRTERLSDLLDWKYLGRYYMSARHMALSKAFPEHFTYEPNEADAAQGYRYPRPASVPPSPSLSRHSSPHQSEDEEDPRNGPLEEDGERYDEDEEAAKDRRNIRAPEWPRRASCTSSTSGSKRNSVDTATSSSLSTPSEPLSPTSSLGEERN
T1 sequence (P46976 1-350 partner): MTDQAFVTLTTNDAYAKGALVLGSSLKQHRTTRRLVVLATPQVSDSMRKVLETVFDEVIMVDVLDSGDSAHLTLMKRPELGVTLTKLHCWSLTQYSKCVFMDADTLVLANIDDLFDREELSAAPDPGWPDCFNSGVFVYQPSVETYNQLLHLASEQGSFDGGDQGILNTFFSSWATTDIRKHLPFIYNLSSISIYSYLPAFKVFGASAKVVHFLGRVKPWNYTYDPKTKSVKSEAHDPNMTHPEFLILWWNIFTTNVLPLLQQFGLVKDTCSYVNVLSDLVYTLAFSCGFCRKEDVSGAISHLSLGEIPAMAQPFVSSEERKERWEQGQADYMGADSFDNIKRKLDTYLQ
Kind of test: GYS1 coupled enzyme assay (PK/LDH, NADH absorbance at 340 nm). It is filed as biochemical. To be noted: geometric mean of at least 2 assay runs on separate days; hGYS1/GN1 50 nM, Glucose-6-Phosphate 1 mM, UDP-Glucose 0.8 mM. The text has this:
The GYS1 coupled enzyme assay is a kinetic biochemical assay that indirectly quantifies the rate of glycogen synthesis by coupling the conversion of GYS1 substrate UDP-glucose into UDP with downstream enzymatic reactions. UDP is released from UDP-glucose as glucose monomers are linked into the growing glycogen strand by GYS1. The coupled assay then proceeds with pyruvate kinase utilizing UDP and phospho(enol)pyruvate (PEP) to form pyruvate. Lactate dehydrogenase then converts pyruvate and NADH into lactate and NAD+. Oxidation of NADH to NAD+ can be measured continuously with a plate reader by quantifying the decrease in NADH absorbance at 340 nm over time.
Compounds that inhibit the hGYS1 enzyme and, subsequently, the downstream conversion of NADH to NAD+, were tested using assay ready plates (black, clear bottom 384 well plates) in a final DMSO reaction volume of 2.5% DMSO. The Assay Buffer contained 50 mM Tris pH 7.5, 2 mM MgCl2, and 100 mM KCl. Fresh stocks of BSA at a final concentration of 0.02% and TCEP at 1 mM were added before splitting buffer into hGYS1 buffer and substrate buffer. To the hGYS1 buffer, rabbit liver glycogen was added at a final concentration of 0.2% glycogen. Glucose-6-Phosphate was added at 1 mM, recombinant hGYS1/GN1 protein was added at 50 nM to the substrate buffer, phosphoenolpyruvate (PEP) was added at 2 mM, UDP-Glucose was added at 0.8 mM, NADH) was added at 0.6 mM, and Pyruvate Kinase/Lactate Dehydrogenase was added at 20 units/mL. The reaction was initiated by mixing hGYS1 buffer and substrate buffer at a 1:1 ratio. Both buffers were plated using a liquid dispensing device with hGYS1 buffer plated first followed by the substrate buffer. Plates were spun briefly to eliminate air bubbles and are immediately read in continuous mode at an absorbance of 340 nm, for 10 time points in one-minute increments, for a total of 10 minutes. The slope from these 10 time points was normalized to the positive and negative control wells. The duplicate % inhibition values are then averaged and fit to a Hill equation for dose response according to the Levenberg-Marquardt algorithm with the Hill equation maximum set to 100 and the minimum set to 0.
The results are shown in Table 2 below, which reports the IC50 of each compound. Unless otherwise specified, IC50 values are reported as the geometric mean of at least 2 assay runs on separate days. Each run represents the average of a technical replicate, where each compound was assayed twice in the same plate. As shown in the table below, the compounds of the present invention are potent inhibitors of human GYS1. A superscript “#” symbol in Table 2 indicates results from a single assay run.
Note that, in Table 2, the compounds are referred to by the corresponding Compound No. in Table 1, which is also referred to in the synthetic examples.

SMILES strings stand for the structures. A value given as a limit tells only on which side of the number the result lay.

The term IC50 denotes the concentration that gives 50% inhibition. `O=C(N[C@@H](c1ccccc1)c1ccc(C2CC2)c(F)n1)[C@@H]1C[C@@H](F)CN1C(=O)COCCOCCNCCOCCOCCOCC(=O)N1C[C@H](F)C[C@H]1C(=O)N[C@@H](c1ccccc1)c1ccc(C2CC2)c(F)n1` [Compound 13, (2S,2′S,4R,4′R)-1,1′-(3,6,12,15,18-pentaoxa-9-azaicosanedioyl)bis(N-((S)-(5-cyclopropyl-6-fluoropyridin-2-yl)(phenyl)methyl)-4-fluoropyrrolidine-2-carboxamide)]: the IC50 was above 10000 nM. As to `O=C(N[C@@H](c1ccccc1)c1ccc(C2CC2)c(F)n1)[C@@H]1C[C@@H](F)CN1C(=O)COCCOCC(=O)N1C[C@H](F)C[C@H]1C(=O)N[C@@H](c1ccccc1)c1ccc(C2CC2)c(F)n1` [Compound 4, (2S,2′S,4R,4′R)-1,1′-(2,2′-(ethane-1,2-diylbis(oxy))bis(acetyl))bis(N-((S)-(5-cyclopropyl-6-fluoropyridin-2-yl)(phenyl)methyl)-4-fluoropyrrolidine-2-carboxamide)], the IC50 is 8910 nM. As for `Cc1cn(CC(=O)N2C[C@H](F)C[C@H]2C(=O)N[C@@H](c2ccccc2)c2ccc(C3CC3)c(F)n2)c(=O)n(CCOCCn2c(=O)c(C)cn(CC(=O)N3C[C@H](F)C[C@H]3C(=O)N[C@@H](c3ccccc3)c3ccc(C4CC4)c(F)n3)c2=O)c1=O` [Compound 14, (2S,2′S,4R,4′R)-1,1′-(2,2′-((oxybis(ethane-2,1-diyl))bis(5-methyl-2,4-dioxo-3,4-dihydropyrimidine-3,1(2H)-diyl))bis(acetyl))bis(N-((S)-(5-cyclopropyl-6-fluoropyridin-2-yl)(phenyl)methyl)-4-fluoropyrrolidine-2-carboxamide)], the IC50 turned out to be 4.9 nM.

As for `O=C(N[C@@H](c1ccccc1)c1ccc(C2CC2)c(F)n1)[C@@H]1C[C@@H](F)CN1C(=O)Cn1cc(OCCOc2cn(CC(=O)N3C[C@H](F)C[C@H]3C(=O)N[C@@H](c3ccccc3)c3ccc(C4CC4)c(F)n3)nn2)nn1` [Compound 9, (2S,2′S,4R,4′R)-1,1′-(2,2′-((ethane-1,2-diylbis(oxy))bis(1H-1,2,3-triazole-4,1-diyl))bis(acetyl))bis(N-((S)-(5-cyclopropyl-6-fluoropyridin-2-yl)(phenyl)methyl)-4-fluoropyrrolidine-2-carboxamide)], the IC50 came to 20.1 nM. To `O=C(N[C@@H](c1ccccc1)c1ccc(C2CC2)c(F)n1)[C@@H]1C[C@@H](F)CN1C(=O)Cn1cc(COCCOCc2cn(CC(=O)N3C[C@H](F)C[C@H]3C(=O)N[C@@H](c3ccccc3)c3ccc(C4CC4)c(F)n3)nn2)nn1` [Compound 7, (2S,2′S,4R,4′R)-1,1′-(2,2′-(((ethane-1,2-diylbis(oxy))bis(methylene))bis(1H-1,2,3-triazole-4,1-diyl))bis(acetyl))bis(N-((S)-(5-cyclopropyl-6-fluoropyridin-2-yl)(phenyl)methyl)-4-fluoropyrrolidine-2-carboxamide)] belongs 11.2 nM.
